Assay: xn = mol fraction of the nth substance listed
Settings: 298.15 K, Liquid

CCCCCCCl [1-chlorohexane] + CN1CCCC1=O
mass density [kg/m3]
Settings	x2 = 0.1003	x2 = 0.1988	x2 = 0.305	x2 = 0.4005	x2 = 0.5007	x2 = 0.5974	x2 = 0.7016	x2 = 0.8002	x2 = 0.8995
100 kPa	884.9	897	911	924.2	938.9	954.1	971.5	988.7	1007.4
500 kPa	885.2	897.3	911.2	924.5	939.2	954.4	971.7	988.9	1007.6
1000 kPa	885.5	897.6	911.6	924.9	939.5	954.6	972.1	989.2	1007.9
1500 kPa	886	898.1	912	925.3	939.9	955	972.4	989.5	1008.2
1900 kPa	–	–	912.3	–	–	–	–	–	–
2000 kPa	886.4	898.4	–	925.6	940.2	955.3	972.7	989.8	1008.4
2500 kPa	886.8	898.9	912.8	926	940.6	955.7	973	990.1	1008.7
3000 kPa	887.2	899.2	913.2	926.4	941	956	973.4	990.4	1009
3500 kPa	887.7	899.6	913.6	926.8	941.3	956.2	973.7	990.6	1009.3
4000 kPa	888	900	–	927.1	941.6	956.6	974	991	1009.6
4100 kPa	–	–	914	–	–	–	–	–	–
4500 kPa	888.4	900.4	914.3	–	942	956.9	974.3	991.2	1009.8
4600 kPa	–	–	–	927.5	–	–	–	–	–
4900 kPa	888.7	–	–	–	–	–	–	–	–
5000 kPa	–	900.8	914.6	927.8	942.3	957.3	974.6	991.5	1010.1
5500 kPa	889.2	901.2	915	928.2	942.7	957.6	974.8	991.8	1010.4
5900 kPa	889.6	–	–	–	–	–	–	–	–
6000 kPa	–	901.6	915.4	928.6	943	958	975.2	992.2	1010.7
6500 kPa	890.1	902	915.8	928.9	943.3	958.3	975.5	992.4	1011
7000 kPa	890.4	902.4	916.2	929.2	943.7	958.6	975.8	992.7	1011.2
7400 kPa	–	902.7	–	–	–	–	–	–	–
7500 kPa	890.8	–	916.6	929.6	944	958.9	976.1	993.1	1011.5
8000 kPa	891.2	903.1	917	929.9	944.3	959.2	976.4	993.3	1011.8
8400 kPa	891.6	–	917.2	–	–	–	–	–	–
8500 kPa	–	–	–	930.3	944.7	959.5	976.7	993.6	1012
8600 kPa	–	903.6	–	–	–	–	–	–	–
8900 kPa	892	–	–	–	945	959.8	–	–	–
9000 kPa	–	903.8	917.7	930.7	–	–	977	993.9	1012.3
9400 kPa	–	–	–	930.9	–	–	–	–	–
9500 kPa	892.4	904.2	918.1	–	945.3	960.1	977.3	994.2	1012.6
9900 kPa	–	–	–	–	–	–	977.7	–	–
10000 kPa	892.9	904.7	918.6	–	–	–	–	–	–

— the NIST ThermoML archive (doi:10.1021/je7003758)
